Values joined by “and” are separate entries in the source; they are usually repeats but may differ in a detail not shown here. Equal entries are not always repeated.
Experiments:
[1] = test system: U-87 MG tumor-bearing mice; assay: Biodistribution in U-87 MG tumor-bearing mice with IPBA; format: in vivo; conditions: IPBA 10 eq at 1 h postinjection
Protocol: To prepare tumor-bearing mice, 5 × 10^6 of U-87 MG cells were subcutaneously inoculated into the right shoulder of 4-week-old female BALB/c nude mice (13–15 g, Japan SLC, Inc.) as previously reported. At approximately 10-day postinoculation of U-87 MG cells, they were used for each experiment after tumor size reached 0.3–0.5 cm^3.
At 1-h postinjection of [^211At]1 (37 kBq) and [^125I]2 (37 kBq), IPBA (1.9 mg, 6.1 µmol) was administered at 10 molar equivalent of blood albumin. Mice were sacrificed at 65-, 70-min, 2-, 4-, 12-, and 24-h postinjection of [^211At]1 and [^125I]2. Tissues of interest were removed and weighed, and radioactivity counts of ^125I and ^211At were determined with an auto well gamma counter (ARC-7010; Hitachi Medical, Ltd., Tokyo, Japan) and corrected for background radiation. To determine the radioactivity excreted from the body for 24 h, mice were housed in metabolic cages (Metabolica, Sugiyama-Gen Co., Ltd., Tokyo, Japan).

[2] = test system: U-87 MG tumor-bearing mice; parameters: method as in PMID 37819452; conditions: 370 and 925 kBq without IPBA; cited from earlier work
[3] = parameters: method as in PMID 37819452; conditions: normal mice; cited from earlier work

Substance: Ga-DOTA-K([^211At]APBA)-c(RGDfK) [[^211At]1]
- Radioactivity, Blood ([1]; 65 min after administration): 13.96 (0.18) % injected activity per gram
- Radioactivity, Bone ([1]; 65 min after administration): 4.07 (0.26) % injected activity per gram
- Radioactivity, Brain ([1]; 65 min after administration): 0.36 (0.00) % injected activity per gram
- Radioactivity, Heart ([1]; 65 min after administration): 5.28 (0.29) % injected activity per gram
- Radioactivity, Kidney ([1]; 65 min after administration): 16.15 (1.45) % injected activity per gram
- Radioactivity, L. intestine ([1]; 65 min after administration): 3.05 (0.10) % injected activity per gram
- Radioactivity, Liver ([1]; 65 min after administration): 5.20 (0.50) % injected activity per gram
- Radioactivity, Lung ([1]; 65 min after administration): 10.81 (0.60) % injected activity per gram
- Radioactivity, Muscle ([1]; 65 min after administration): 2.80 (0.39) % injected activity per gram
- Radioactivity, Neck ([1]; 65 min after administration): 0.04 (0.02) % injected activity
- Radioactivity, Pancreas ([1]; 65 min after administration): 2.82 (0.16) % injected activity per gram
- Radioactivity, S. intestine ([1]; 65 min after administration): 4.69 (0.26) % injected activity per gram
- Radioactivity, Spleen ([1]; 65 min after administration): 4.06 (0.21) % injected activity per gram
- Radioactivity, Stomach ([1]; 65 min after administration): 1.12 (0.28) % injected activity
- Radioactivity, Tumor ([1]; 65 min after administration): 10.92 (0.34) % injected activity per gram
- Radioactivity, Blood ([1]; 70 min after administration): 9.85 (0.55) % injected activity per gram
- Radioactivity, Bone ([1]; 70 min after administration): 2.22 (0.60) % injected activity per gram
- Radioactivity, Brain ([1]; 70 min after administration): 0.26 (0.02) % injected activity per gram
- Radioactivity, Heart ([1]; 70 min after administration): 3.66 (0.27) % injected activity per gram
- Radioactivity, Kidney ([1]; 70 min after administration): 11.02 (1.44) % injected activity per gram
- Radioactivity, L. intestine ([1]; 70 min after administration): 2.25 (0.27) % injected activity per gram
- Radioactivity, Liver ([1]; 70 min after administration): 3.72 (0.52) % injected activity per gram
- Radioactivity, Lung ([1]; 70 min after administration): 7.40 (0.85) % injected activity per gram
- Radioactivity, Muscle ([1]; 70 min after administration): 1.60 (0.16) % injected activity per gram
- Radioactivity, Neck ([1]; 70 min after administration): 0.05 (0.00) % injected activity
- Radioactivity, Pancreas ([1]; 70 min after administration): 1.95 (0.14) % injected activity per gram
- Radioactivity, S. intestine ([1]; 70 min after administration): 3.61 (0.36) % injected activity per gram
- Radioactivity, Spleen ([1]; 70 min after administration): 2.77 (0.39) % injected activity per gram
- Radioactivity, Stomach ([1]; 70 min after administration): 0.78 (0.17) % injected activity
- Radioactivity, Tumor ([1]; 70 min after administration): 10.79 (1.09) % injected activity per gram
- Radioactivity, Blood ([1]; 2 h after administration): 8.06 (0.39) % injected activity per gram
- Radioactivity, Bone ([1]; 2 h after administration): 3.04 (0.30) % injected activity per gram
- Radioactivity, Heart ([1]; 2 h after administration): 2.86 (0.31) % injected activity per gram
- Radioactivity, Kidney ([1]; 2 h after administration): 8.22 (0.51) % injected activity per gram
- Radioactivity, L. intestine ([1]; 2 h after administration): 2.35 (0.97) % injected activity per gram
- Radioactivity, Liver ([1]; 2 h after administration): 2.45 (0.21) % injected activity per gram
- Radioactivity, Lung ([1]; 2 h after administration): 5.67 (0.59) % injected activity per gram
- Radioactivity, Muscle ([1]; 2 h after administration): 1.96 (0.68) % injected activity per gram
- Radioactivity, Neck ([1]; 2 h after administration): 0.04 (0.02) % injected activity
- Radioactivity, Pancreas ([1]; 2 h after administration): 1.64 (0.14) % injected activity per gram
- Radioactivity, S. intestine ([1]; 2 h after administration): 2.42 (0.70) % injected activity per gram
- Radioactivity, Spleen ([1]; 2 h after administration): 2.34 (0.18) % injected activity per gram
- Radioactivity, Stomach ([1]; 2 h after administration): 0.81 (0.05) % injected activity
- Radioactivity, Tumor ([1]; 2 h after administration): 13.38 (1.48) % injected activity per gram
- Radioactivity, Blood ([1]; 4 h after administration): 3.04 (0.26) % injected activity per gram
- Radioactivity, Bone ([1]; 4 h after administration): 1.60 (0.14) % injected activity per gram
- Radioactivity, Brain ([1]; 4 h after administration): 0.18 (0.02) % injected activity per gram
- Radioactivity, Heart ([1]; 4 h after administration): 1.44 (0.10) % injected activity per gram
- Radioactivity, Kidney ([1]; 4 h after administration): 5.32 (0.35) % injected activity per gram
- Radioactivity, L. intestine ([1]; 4 h after administration): 4.03 (1.33) % injected activity per gram
- Radioactivity, Liver ([1]; 4 h after administration): 1.34 (0.05) % injected activity per gram
- Radioactivity, Lung ([1]; 4 h after administration): 3.34 (0.11) % injected activity per gram
- Radioactivity, Muscle ([1]; 4 h after administration): 0.61 (0.01) % injected activity per gram
- Radioactivity, Neck ([1]; 4 h after administration): 0.02 (0.00) % injected activity
- Radioactivity, Pancreas ([1]; 4 h after administration): 0.93 (0.26) % injected activity per gram
- Radioactivity, S. intestine ([1]; 4 h after administration): 3.03 (0.65) % injected activity per gram
- Radioactivity, Spleen ([1]; 4 h after administration): 2.18 (0.13) % injected activity per gram
- Radioactivity, Stomach ([1]; 4 h after administration): 0.75 (0.01) % injected activity
- Radioactivity, Tumor ([1]; 4 h after administration): 12.48 (0.95) % injected activity per gram
- Radioactivity, Blood ([1]; 12 h after administration): 2.71 (0.21) % injected activity per gram
- Radioactivity, Bone ([1]; 12 h after administration): 1.10 (0.24) % injected activity per gram
- Radioactivity, Brain ([1]; 12 h after administration): 0.12 (0.01) % injected activity per gram
- Radioactivity, Heart ([1]; 12 h after administration): 1.49 (0.11) % injected activity per gram
- Radioactivity, Kidney ([1]; 12 h after administration): 3.12 (0.14) % injected activity per gram
- Radioactivity, L. intestine ([1]; 12 h after administration): 0.89 (0.06) % injected activity per gram
- Radioactivity, Liver ([1]; 12 h after administration): 1.04 (0.12) % injected activity per gram
- Radioactivity, Lung ([1]; 12 h after administration): 3.50 (0.28) % injected activity per gram
- Radioactivity, Muscle ([1]; 12 h after administration): 0.54 (0.02) % injected activity per gram
- Radioactivity, Neck ([1]; 12 h after administration): 0.09 (0.03) % injected activity
- Radioactivity, Pancreas ([1]; 12 h after administration): 0.92 (0.08) % injected activity per gram
- Radioactivity, S. intestine ([1]; 12 h after administration): 1.01 (0.14) % injected activity per gram
- Radioactivity, Spleen ([1]; 12 h after administration): 1.41 (0.12) % injected activity per gram
- Radioactivity, Stomach ([1]; 12 h after administration): 0.72 (0.09) % injected activity
- Radioactivity, Tumor ([1]; 12 h after administration): 7.73 (0.76) % injected activity per gram
- Radioactivity, Blood ([1]; 24 h after administration): 2.21 (0.38) % injected activity per gram
- Radioactivity, Bone ([1]; 24 h after administration): 0.64 (0.16) % injected activity per gram
- Radioactivity, Brain ([1]; 24 h after administration): 0.26 (0.31) % injected activity per gram
- Radioactivity, Heart ([1]; 24 h after administration): 0.90 (0.31) % injected activity per gram
- Radioactivity, Kidney ([1]; 24 h after administration): 1.91 (0.38) % injected activity per gram
- Radioactivity, L. intestine ([1]; 24 h after administration): 0.41 (0.24) % injected activity per gram
- Radioactivity, Liver ([1]; 24 h after administration): 0.73 (0.17) % injected activity per gram
- Radioactivity, Lung ([1]; 24 h after administration): 2.31 (0.34) % injected activity per gram
- Radioactivity, Muscle ([1]; 24 h after administration): 0.32 (0.07) % injected activity per gram
- Radioactivity, Neck ([1]; 24 h after administration): 0.04 (0.01) % injected activity
- Radioactivity, Pancreas ([1]; 24 h after administration): 0.41 (0.12) % injected activity per gram
- Radioactivity, S. intestine ([1]; 24 h after administration): 0.46 (0.22) % injected activity per gram
- Radioactivity, Spleen ([1]; 24 h after administration): 1.22 (0.27) % injected activity per gram
- Radioactivity, Stomach ([1]; 24 h after administration): 0.61 (0.18) % injected activity
- Radioactivity, Tumor ([1]; 24 h after administration): 6.15 ± 0.20 % injected activity per gram and 6.15 (0.20) % injected activity per gram
- Radioactivity excreted, Feces ([1]; until 24 h postinjection): 4.09 ± 1.69 % injected activity and 4.09 (1.69) % injected activity
- Radioactivity excreted, Urine ([1]; until 24 h postinjection): 38.98 ± 5.39 % injected activity and 38.98 (5.39) % injected activity
- Weight loss and death [2]: a little weight loss, but no mice died
- Toxicity [3]: no serious hematotoxicity and weight loss

From PMC11224111, “Optimizing the pharmacokinetics of an ^211At-labeled RGD peptide with an albumin-binding moiety via the administration of an albumin-binding inhibitor” (European Journal of Nuclear Medicine and Molecular Imaging, 2024)
